Measured values reported in paper PMC12337082 (Journal of Biochemical and Molecular Toxicology, 2025).

How the values were obtained:
MCF‐7 [1] = experiment: MTT cell viability assay, MCF‐7; type: cell-based, human; details: Homo sapiens, MCF7, MTT
From the text: (§1) MCF‐7, MDA‐MB‐231, and L‐929 mouse fibroblast cell lines were obtained from the American Type Culture Collection (ATCC, Manassas, Virginia, USA). MCF‐7 is a hormone‐responsive, differentiated mammary epithelium cell line with an ER+, PR+, and HER2‐ pattern (ATCC, HTB‐22). MDA‐MB‐231 is a triple‐negative differentiated mammary epithelium cell line (ATCC, HTB‐26). The L‐929 mouse fibroblast cell line is derived from the normal subcutaneous connective tissue of a mouse and is commonly used in cytotoxicity assays (ATCC, CCL‐1). All cell lines were cultured in DMEM medium (Dulbecco's Modified Eagle Medium, Gibco), supplemented with 10% fetal bovine serum (Gibco), 1% glutamine, and penicillin/streptomycin (Gibco) in a humidified atmosphere containing 5% CO2 at 37°C. Cell viability was tested using Trypan blue staining.
(§2) The MTT [3‐(4,5‐dimethylthiazol‐2‐yl)−2,5‐diphenyltetrazolium bromide] assay is a colorimetric assay for determining cell metabolic activity. In the MTT assay, the yellow dye MTT that dissolves in water is changed by mitochondrial reductase into a purple formazan that is non‐soluble. The water‐insoluble formazan produced is solubilized in a solubilization buffer, and absorbances are detected.
(§3) In 96‐well plates, the cells were cultivated at a density of 5 × 10^3 cells/well using 100 µL medium. […] 10 μL of the MTT labeling reagent (final concentration 0.5 mg/mL) were added to each well at the end of the incubation periods, and the wells were incubated for an additional 4 h. Next, each well received 100 μL of solubilization buffer (10% SDS in 0.01 M HCl) and was overnight incubated, and the absorbance of formazan products was evaluated at 550 nm using a multi‐mode microplate reader (Synergy H1, Biotech Instruments Inc., Vermont, USA). The results were normalized relative to the absorbances of calculated percent concentrations of DMSO. All tests involved three replicates with three independent experiments.
(§4) All statistical evaluations, including t‐tests and IC50 values, were calculated using the GraphPad Prism software tool (v6.0, GraphPad Software Inc., San Diego, USA). Statistical significance was defined as p ˂ 0.05 (*p < 0.05, **p < 0.01, ***p < 0.001, ****p < 0.0001).

MDA‐MB‐231 [2] = experiment: MTT cell viability assay, MDA‐MB‐231; type: cell-based, human; details: Homo sapiens, MTT
From the text: as §1, §2, §3, §4

MCF‐7 [3] = experiment: Annexin V/PI staining, Tali image‐based cytometry, MCF‐7; type: cell-based, human; details: MCF‐7, 24 h
From the text: (§5) To assess apoptosis and cell death, cells were stained with Annexin V‐PI dyes (Tali Apoptosis Kit‐Annexin V Alexa Fluor 488 and PI‐, Molecular Probes A10788, Invitrogen) and quantified using Tali Image‐Based Cytometer (Invitrogen) and fluorescence microscopy (Olympus CKX41 Inverted Phase Contrast Fluorescence Microscope furbished with reflected fluorescence illuminator CKX‐RFA).
(§6) To assess whether our compounds produce their cytotoxic effects through induction of apoptosis, apoptosis was investigated using Annexin V/PI labeling and MMP methods (Figures 4A−C). In addition, by utilizing TALI image‐based cytometry and fluorescent microscopy, the number of cells was analyzed for different concentrations of agents (Table 4).

MDA‐MB‐231 [4] = experiment: Annexin V/PI staining, Tali image‐based cytometry, MDA‐MB‐231; type: cell-based, human; details: MDA‐MB‐231, 24 h
From the text: as §5, §6

PGE2 release [5] = experiment: PGE2 ELISA, MDA‐MB‐231; type: cell-based, human; details: MDA‐MB‐231, 0.5 mM, 24 h
Experimental: (§7) PGE2 ELISA kit (ENZO, ADI‐900‐001) was used to determine prostaglandin synthesis levels. MCF‐7 and MDA‐MB‐231 breast cancer cells were cultured at a density of 1 × 10^6 cells/well in a 6‐well culture dish. […] Following 24 h of incubation, the medium was replaced with a fresh one, 10 µM arachidonic acid was added, and it was further incubated for 1 h. The PGE2 levels were determined according to the kit protocol.

[6] = test system: MCF‐7, MDA‐MB‐231, and L‐929; experiment: MTT cell viability assay, statements over all cell lines; type: cell-based
From the text: as §1, §2, §3
All statistical evaluations, including t‐tests and IC50 values, were calculated using the GraphPad Prism software tool (v6.0, GraphPad Software Inc., San Diego, USA). […]

SSC‐9 skin cancer = test system: SSC‐9 skin cancer; set-up: method as in Abo Aasy et al. (2019) [62]; details: 24 h, ref Abo Aasy et al. (2019) [62]; cited from earlier work
PGE2 release [7] = experiment: PGE2 ELISA, MCF‐7; type: cell-based, human; details: MCF‐7, 0.5 mM, 24 h
Experimental: as §7

[8] = test system: L‐929 mouse fibroblast cell line; experiment: MTT cell viability assay, L‐929 control fibroblasts; type: cell-based; details: Mus musculus
From the text: as §1, §2, §3, §4

Leukemia = test system: Leukemia; set-up: method as in Nakamura et al. (2004) [60]; details: 72 h, ref Nakamura et al. (2004) [60]; cited from earlier work
[9] = test system: MCF‐7, MDA‐MB‐231, and L‐929 cells; experiment: Mitochondrial membrane potential (JC‐1) apoptosis assay, statements over all cell lines; type: cell-based; details: MMP assay, similar levels for all cells including L‐929
Experimental: Apoptosis was also investigated by evaluating mitochondrial membrane potential changes (MMP assay). MCF‐7, MDA‐MB‐231, and L‐929 cells were stained with JC‐1 dye according to the manufacturer's protocols (JC‐1 MMP Assay Kit, KA1324, Abnova). The apoptotic to healthy cell ratio was calculated using absorbances collected from two different fluorescence channels (535/595 for healthy cells, 485/535 for apoptotic cells) (Synergy H1, Biotech Instruments Inc., Vermont, USA).

Q: With CCc1cccc2c3c([nH]c12)C(CC)(CC(=O)O)OCC3 (stereo not shown) [Etodolac, 2‐(1,8‐diethyl‐1,3,4‐tetrahydropyrano [3,4‐b]indol‐1‐yl) acetic acid, reference compound] as the molecule, how does the IC50 (MCF‐7 [1]; MCF‐7, 24 h) read?
A: 750 ± 4.2 µM

Q: And the IC50 (MCF‐7 [1]; MCF‐7, 48 h)?
A: 731 ± 1.37 µM

Q: What about the IC50 (MCF‐7 [1]; MCF‐7, 72 h) of the same molecule?
A: 555 ± 2.42 µM

Q: And the IC50 (MDA‐MB‐231 [2]; MDA-MB-231, 24 h, MDA‐MB‐231, 24 h)?
A: 740 ± 1.65 µM

Q: And the IC50 (MDA‐MB‐231 [2]; MDA-MB-231, 48 h, MDA‐MB‐231, 48 h)?
A: 699 ± 4.61 µM

Q: What about the IC50 (MDA‐MB‐231 [2]; MDA-MB-231, 72 h, MDA‐MB‐231, 72 h) of the same molecule?
A: 578 ± 3.65 µM

Q: What about the Apoptotic cells (MCF‐7 [3]; 100 µM) of the same molecule?
A: 1%

Q: And the Dead cells (MCF‐7 [3]; 100 µM)?
A: 5%

Q: What about the Live cells (MCF‐7 [3]; 100 µM) of the same molecule?
A: 94%

Q: What about the Apoptotic cells (MCF‐7 [3]; 250 µM) of the same molecule?
A: 2%

Q: And the Dead cells (MCF‐7 [3]; 250 µM)?
A: 6%

Q: What about the Live cells (MCF‐7 [3]; 250 µM) of the same molecule?
A: 92%

Q: What about the Apoptotic cells (MCF‐7 [3]; 500 µM) of the same molecule?
A: 7%

Q: What about the Dead cells (MCF‐7 [3]; 500 µM) of the same molecule?
A: 9%

Q: What about the Live cells (MCF‐7 [3]; 500 µM) of the same molecule?
A: 84%

Q: And the Apoptotic cells (MCF‐7 [3]; 1000 µM)?
A: 5%

Q: What about the Dead cells (MCF‐7 [3]; 1000 µM) of the same molecule?
A: 8%

Q: And the Live cells (MCF‐7 [3]; 1000 µM)?
A: 87%

Q: And the Apoptotic cells (MDA‐MB‐231 [4]; 100 µM)?
A: 1%

Q: What about the Dead cells (MDA‐MB‐231 [4]; 100 µM) of the same molecule?
A: 4%

Q: What about the Live cells (MDA‐MB‐231 [4]; 100 µM) of the same molecule?
A: 95%

Q: What about the Apoptotic cells (MDA‐MB‐231 [4]; 250 µM) of the same molecule?
A: 1%

Q: And the Dead cells (MDA‐MB‐231 [4]; 250 µM)?
A: 5%

Q: And the Live cells (MDA‐MB‐231 [4]; 250 µM)?
A: 94%

Q: What about the Apoptotic cells (MDA‐MB‐231 [4]; 500 µM) of the same molecule?
A: 6%

Q: And the Dead cells (MDA‐MB‐231 [4]; 500 µM)?
A: 10%

Q: What about the Live cells (MDA‐MB‐231 [4]; 500 µM) of the same molecule?
A: 84%

Q: What about the Apoptotic cells (MDA‐MB‐231 [4]; 1000 µM) of the same molecule?
A: 11%

Q: And the Dead cells (MDA‐MB‐231 [4]; 1000 µM)?
A: 13%

Q: And the Live cells (MDA‐MB‐231 [4]; 1000 µM)?
A: 76%

Q: And the “Inhibition of PGE2 release” value (PGE2 release [5])?
A: 38%

Q: What about the “Concentration at which viability of the cells was reduced” value ([6]; all cell lines including healthy controls) of the same molecule?
A: 0.2−0.5 mM

Q: And the IC50 ([6]; read-out: IC50 range)?
A: 500 to 1000 µM

Q: And the IC50 (SSC‐9 skin cancer)?
A: 983 µM

Q: What about the “Inhibition of PGE2 release” value (PGE2 release [7]) of the same molecule?
A: 57%

Q: What about the IC50 ([8]; L929, 24 h, L‐929, 24 h) of the same molecule?
A: 735 ± 3.7 µM

Q: And the IC50 ([8]; L929, 48 h, L‐929, 48 h)?
A: 751 ± 9.5 µM

Q: What about the IC50 ([8]; L929, 72 h, L‐929, 72 h) of the same molecule?
A: 622 ± 4.7 µM

Q: What about the IC50 (Leukemia) of the same molecule?
A: 50 to 100 µM

Q: What about the “Concentration after which apoptotic increases became detectable” value [9] of the same molecule?
A: 0.5−1.0 mM
